The values that follow come from patent US10300143B2, “Compositions for treating cancer and methods for making the same” (THE BRIGHAM AND WOMEN'S HOSPITAL, INC., priority 2012, dated 2019).

Like-named read-outs stand apart in the source and are kept apart here.

In data set [1] the test system is Lewis lung carcinoma (LLC) cells. The data set can be described thus: Cell viability assay (MTS), platinates. The conditions noted are these: 48 h. The format is cell-based. Here is the method: (§1) The LLC cells, breast cancer cell line (4T1), and hepatocellular carcinoma cells (CP20) were seeded into 96-well flat bottomed plates (4×10^3 cells per well). Drugs or SACNs were added at equivalent Pt concentrations and incubated for 48 h. Viability was quantified using the Cell-Titer 96 Aqueous One Solution™ reagent. Cellular apoptosis was quantified using Annexin-V-Alexa Fluor™ 488 conjugate and propidium iodide staining followed by FACS.
(§2) The Lewis lung carcinoma (LLC) cells, breast cancer cell line (4T1), and hepatocellular carcinoma cells (CP20) were purchased from American Type Culture Collection. LLC cells and CP20 cells were cultured in DMEM and 4T1 cells were cultured in RPMI medium 1640-supplemented with 10% FBS, 50 unit/mL penicillin, and 50 unit/mL streptomycin. Trypsinized cultured LLC, 4T1, and CP20 cells were washed twice with PBS and seeded into 96-well flat-bottomed plates (4×10^3 cells per well). Free drugs and SACNs were added at appropriate concentrations (0.01, 0.1, 1, 10, 20, 50 μM Pt concentration). […] After 2 h incubation in 5% CO2 atmosphere at 37° C., the absorbance in each well was recorded at 490 nm using an Epoch (BioTek™) plate reader. Results were quantified by subtracting the blank value from each value then normalizing against the control values and results were analyzed by using Prism™ software (GraphPad). […]

The subject of data set [2] is 4T1 breast cancer cell line. In words: Cell viability assay (MTS), platinates. Conditions: 48 h. The data set is classed as cell-based, murine. Here is the method:
as §1, §2

The test system of the next data set is 4T1 breast tumors. Here is the method:
The 4T1 breast cancer cells (3×10^5) were implanted subcutaneously in the flanks of 4-wk-old BALB/c mice. […] PBS (100 μL) by tail-vain injection was used as a control for drug treatment. Treatment was started on day 9 postimplantation, and administered every alternate day till day 13. The tumor volumes and body weights were monitored on a daily basis. The tumor volume was calculated by using the formula, L×B^2.
The tissues were fixed in 10% formalin, paraffin-embedded, and sectioned at the Harvard Medical School Core Facility. Tumor and kidney paraffin sections were deparaffinized and stained with a standard TMR red fluorescent TUNEL kit following the manufacturer's protocol (In Situ Cell Death Detection Kit™, TMR-Red; Roche). The kidney sections were also immunolabeled for KIM1 expression. Images were obtained using a Nikon Eclipse TE2000™ fluorescence microscope equipped with red filter.
The 4T1 breast cancer cells (3×105) were implanted subcutaneously in the flanks of 4-wk-old BALB/c mice (weighing 20 g; Charles River Laboratories). The drug therapy was started on day 9. […] PBS (100 μL) administered by tail-vain injection was used as a control for drug treatment. The tumor volumes and body weights were monitored on a daily basis. The tumor volume was calculated by using the formula, L×B2, where the longest diameter was considered as L and the shortest diameter as measured using a vernier caliper as B. The animals were killed when the average tumor volume of the control exceeded 2,000 mm3 in the control group. The tumors were harvested immediately following sacrifice and stored in 10% formalin for further analysis. All animal procedures were approved by the Harvard Institutional Use and Care of Animals Committee.
The tissues were fixed in 10% formalin, paraffin-embedded, and sectioned at the Harvard Medical School Core Facility. Tumor and kidney paraffin sections were deparaffinized and stained with standard TMR red fluorescent TUNEL kit following the manufacturer's protocol (In Situ Cell Death Detection Kit™, TMR-Red; Roche). Images were obtained using a Nikon Eclipse TE2000 fluorescence microscope equipped with red filter.

Data set [3] relates to cisplatin-resistant hepatocellular carcinoma (7404-CP20) cell line. In words: Cell viability assay (MTS), platinates. The data set is classed as cell-based, human. The conditions noted are these: 48 h. Here is the method:
as §1, §2

For a further data set, the system named is 4T1 cells. The data set can be described thus: FACS analysis of apoptosis (Annexin-V/PI). The format is cell-based, murine. The conditions noted are these: 1 μM Pt, 24 h. Here is the method:
The LLC cells, breast cancer cell line (4T1), and hepatocellular carcinoma cells (CP20) were seeded into 96-well flat bottomed plates (4×10^3 cells per well). Drugs or SACNs were added at equivalent Pt concentrations and incubated for 48 h. Viability was quantified using the Cell-Titer 96 Aqueous One Solution™ reagent. Cellular apoptosis was quantified using Annexin-V-Alexa Fluor™ 488 conjugate and propidium iodide staining followed by FACS. […] After 24 h, the cells were washed with PBS and collected at 0° C. The cells were then treated with Annexin-V-Alexa Fluor 488™ conjugate (Molecular Probes, Invitrogen) and incubated in the dark, at room temperature, for 15 min. The cells were then washed with PBS and incubated with propidium iodide (PI) solution ([…]; Sigma) containing RNase (1 mg/mL; Sigma). The cell suspension were then transferred to FACS tubes and analyzed for Annexin-V/PI staining on a BD FACS Calibur™ instrument. Data were analyzed using a CellQuestPro™ software (BD Biosciences).
(Flow cytometry measures light scatter and fluorescence of single cells or particles in a stream.)

Data set [4] can be described thus: Maximum tolerated dose (20% body weight loss). The format is in vivo, BALB/c mice.
Data set [5] concerns K-Ras^LSL/+/Pten^fl/fl ovarian cancer. The data set can be described thus: In vivo K-ras^LSL/+/Pten^fl/fl ovarian cancer model, platinates. More on the design: species or system mice. Conditions: Pt dose equivalent to 3 mg/kg of cisplatin.
Setting [6] is: single dose, Pt equivalent to 8 mg/kg cisplatin.

For the molecule `N.N.O=C([O-])C1(C(=O)[O-])CCC1.[Pt+2]` [carboplatin], the “inhibitory activity (cell viability)” value in data set [1] and in data set [2] was “In neither of these cell lines did carboplatin exert any inhibitory activity at this concentration range” each time. For the same molecule, the survival result in the data set on 4T1 breast tumors (setting [6]) is listed as “only minor increase in survival over vehicle-treated controls”.
With `N.N.[Cl][Pt][Cl]` [cisplatin, cis-dichlorodiamineplatinum (II)], the IC50 in data set [1] was found to be 2.91 ± 0.015 µM; in data set [2] it was 4.72 ± 0.016 µM; in data set [3], 42.84 ± 0.04 µM. Further, the apoptosis and necrosis entry in the data set with 4T1 cells is “more efficacious than carboplatin”. The “maximum tolerated dose (MTD)” value in data set [4] is given as 9 mg/kg. The tumor growth entry in the data set with 4T1 breast tumors (multiple dose, 1 and 3 mg/kg, days 9, 11, 13) is recorded as “dose-dependent inhibition of tumor growth”. Moreover, the survival result with 4T1 breast tumors (multiple dose, higher dose) is listed as “increase survival”; with 4T1 breast tumors (setting [6]) it was “only minor increase in survival over vehicle-treated controls”. Also, the tumor inhibition entry with 4T1 breast tumors (multiple dose, highest doses (3 mg/kg Pt)) is “identical”; in the data set on 4T1 breast tumors (multiple dose, lower doses (1 mg/kg Pt)), “greater tumor inhibition as opposed to the higher dose of carboplatin”. Besides, the “kidney cell death (TUNEL)” value in data set [5] is given as “induced apoptosis of nephrons”. In addition, the “tumor apoptosis (TUNEL)” value in data set [5] is “apoptosis”.

As a reminder, the IC50 is the concentration that gives 50% inhibition.
